Entries after “also recorded” stand apart in the source; their conditions may differ.
How the values were obtained:
[1] = biological target: T1, FimH lectin domain (amino acids 1-158) (Escherichia coli, UniProt P08191); assay: biochemical; type: binding, E. coli; settings: for IC50: IC50, competitive inhibition of biotinylated Man-BSA binding to coated FimH lectin; for RIP (relative inhibitory potency): relative to reference MeMan, 23
T1 construct: using a FimH lectin domain (amino acids 1-158) LEctPROFILE kit (provided by GLYcoDiag); purchased GLYcoDiag (Orléans, France)
T1 sequence (P08191 22-179): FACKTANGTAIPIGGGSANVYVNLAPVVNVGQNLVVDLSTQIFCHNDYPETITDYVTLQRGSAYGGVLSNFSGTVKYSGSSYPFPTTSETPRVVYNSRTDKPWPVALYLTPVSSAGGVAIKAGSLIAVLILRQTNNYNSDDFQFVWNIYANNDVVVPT
Method: To measure the relative binding affinity of the newly synthesized compounds 11, 20, and 18 against FimH, the usual referenced standards were used for comparison with previously published data: heptyl α-D-mannopyranoside (HepMan, 21), para-nitrophenyl α-D-mannopyranoside (PNPMan, 22), and methyl α-D-mannopyranoside (MeMan, 23). The relative inhibitory potential of the above compounds was determined against a biotinylated Man-BSA conjugate using a FimH lectin domain (amino acids 1-158) LEctPROFILE kit (provided by GLYcoDiag) (Figure 1, Table 1).
FimH LEctPROFILE kit assays from GLYcoDiag (Orléans, France) were performed according to GlycoDiag’s protocol already described. Briefly, the interaction profiles of each compound were determined through a competitive inhibition assay based on the inhibition by the compounds of the interaction between FimH lectin coated onto the microplate surface and a biotinylated neoglycoprotein NeoM (Man-BSA) as a tracer. A mix of biotinylated Man-BSA (fixed concentration) and the corresponding compounds (range of concentrations) prepared in PBS supplemented with 1 mM CaCl2 and 0.5 mM MgCl2 was deposited in each well (50 µL each) in triplicate and incubated for two hours at room temperature. After washing with PBS buffer, the conjugate streptavidin-DTAF (dichlorotriazinylamino fluorescein) was added (50 µL) and incubated 30 min more. The plate was washed again with PBS. Finally, 100 µL of PBS was added for the readout of fluorescent plate performed with a fluorescence reader (Pherastar microplate reader, BMG labtech, λex = 485 nm, λem = 530 nm). The signal intensity is inversely correlated with the capacity of the compound to be recognized by the lectin and expressed as inhibition percentage with comparison with the corresponding tracer alone. Data analysis was performed with GraphPadPrism software (version 5.03 for windows, San Diego, CA, USA). 50% inhibitory concentration (IC50) was determined according to a standard dose-response/inhibition fitting model with the following equation: y = 100 / (1 + [inhibitor]/IC50) and expressed in nanomolar units.

[2] = tested on: strain CFT073 adhesion to HTB-9 cells; assay: Bacterial adhesion assay on bladder cell monolayers; type: cell-based, Escherichia coli / human; settings: for efficiency at reducing FimH-mediated bacterial adherence (result in words): 500 μM, HTB-9 cells, CFT073
Method: To evaluate the efficacy of the synthetic mannoside antagonists to inhibit the ability of CFT073 strain to adhere to epithelial cells, an in vitro adhesion assay was performed. For this purpose, equal amounts of strain CFT073 strain were inoculated in PBS supplemented with different concentrations of each mannoside at final concentrations of 100, 500 μM, and 1 mM and incubated for 3h under static conditions. Bacterial inoculation was used to infect cell line 5637 (HTB-9 cell) monolayers at a multiplicity of infection (MOI) of 10. At 2.5 h post-infection, the number of cell-associated bacteria was calculated by CFU/mL counting (Figure 9). No significant inhibition of bacterial adhesion to bladder cells was obtained using mannoside inhibitors at 100 µM. Conversely, a significant reduction (more than 1 log) in the number of adherent bacteria was observed by increasing the concentration of the mannosides to 500 μM in comparison to non-treated bacteria (Figure 10). The same extent of reduction in bacterial adhesion to bladder cells was obtained by increasing mannosides concentration to 1 mM, thereby showing a dose-dependent effect. […] To appraise qualitatively the reduction of bacterial adhesion, parallel infected cells were fixed, and Giemsa stained.
HTB-9 cells were routinely seeded in cell culture plates and maintained 2–4 days at 37 °C in a humidified atmosphere containing 5% CO2. For the adhesion assay, cells were seeded in 35 mm tissue culture plates at a density of 1 × 10^5 cells/well and incubated at 37 °C for 48 h to reach confluency. CFT073 was grown in LB under mild shaking conditions overnight and resuspended in phosphate buffer (PBS) to an inoculum of ~10^6 CFU/mL (normalized according to OD600). Each mannoside molecule was added to CFT073 inoculant at the final concentrations of 100, 500 μM and 1 mM and incubated for 3 h in static conditions. […] Images were recorded with a Leica DM5000B microscope equipped with DFX340/DFX300 camera and processed using the Leica Application Suite 2.7.0.R1 software (Leica).

E. coli FimH = tested on: E. coli FimH; parameters: method as in PMID 28671638; settings: unit inferred; previous work; cited from earlier work
UPEC strain CFT073 = assay: Mannosides as carbon source, CFU/mL counting in PBS; type: cell-based, Escherichia coli; settings: 24 h, 37 °C, 500 μM (D-mannose also 83 mM)
Method: To test whether the above mannoside derivatives could exert bactericidal and/or cytotoxic activities, bacterial growth and cell viability assays were undertaken in the presence of each mannoside at different concentrations. Natural D-mannose (D-Man) was included as control. […] Moreover, no cytotoxic effect was recorded for urinary bladder cell line 5637 (HTB-9 cell) monolayers, as measured by the MTT test (Figure 6). Since D-mannose can serve as nutrient replacement for E. coli when there is a shortage of D-glucose, we tested whether these new derivatives could be used as carbon sources as well [5]. […] Bacteria were incubated for an additional 24 h in the absence and in the presence of different mannosides and the number of viable bacteria was assessed by CFU/mL counting. […] Since carbohydrates can influence the activity of conventional antibiotics, the activity of different classes of antibiotics such as ampicillin (AMP 30 μg/mL), streptomycin (SM 50 µg/mL), and gentamycin (GM 50 µg/mL) in the presence of the synthetic mannoside analogs was evaluated.
Mannosides dissolved in dimethyl sulfoxide DMSO or water at a final concentration of 5 mM were prepared. […] Readings of culture turbidity (OD600) were determined using a plate reader (POLARstar Omega BMG Labtech plate reader, Germany). […]

Structure (SMILES) | IC50 [1] [nM] | RIP (relative inhibitory potency) [1] | efficiency at reducing FimH-mediated bacterial adherence (result in words) [2] | Kd (E. coli FimH) [nM] | lower concentration than natural D-mannose for same extent of bacterial adhesion inhibition ([2]; compared with natural D-mannose) [fold] | number of viable bacteria (CFU/mL) compared to non-treated control (UPEC strain CFT073)
OC[C@H]1O[C@H](C/C=C/c2ccc3ncccc3c2)[C@@H](O)[C@@H](O)[C@@H]1O [Compound 11] | 3.17 ± 2.3 | 887 | most efficient; also recorded: better potency in inhibiting bacterial adhesion |  |  | 
OC[C@H]1O[C@H](C/C=C/c2ccc(-c3ccccc3)cc2)[C@@H](O)[C@@H](O)[C@@H]1O [Compound 18] | 30.3 ± 9 | 93 |  | 17 ± 3.5 |  | 
OC[C@H]1O[C@H](C/C=C/c2ccccc2-c2ccncc2)[C@@H](O)[C@@H](O)[C@@H]1O [Compound 20] | 0.82 ± 0.4 | 3428 |  |  |  | 
CCCCCCCO[C@H]1O[C@H](CO)[C@@H](O)[C@H](O)[C@@H]1O [Compound 21, heptyl α-D-mannopyranoside] | 19.4 ± 5.2 | 145 |  |  |  | 
O=[N+]([O-])c1ccc(O[C@H]2O[C@H](CO)[C@@H](O)[C@H](O)[C@@H]2O)cc1 [Compound 22, para-nitrophenyl α-D-mannopyranoside] | 74.1 | 38 |  |  |  | 
CO[C@H]1O[C@H](CO)[C@@H](O)[C@H](O)[C@@H]1O [Compound 23, methyl α-D-mannopyranoside] | 2810 | 1 | less efficient |  | 164 | 
OC[C@H]1OC(O)[C@@H](O)[C@@H](O)[C@@H]1O (stereo partly drawn) [D-mannose] |  |  |  |  |  | supports the growth; also recorded: increased significantly
